Reference: PMC10203105 (Communications Biology, 2023)

B1: AtDHDPR1 (dihydrodipicolinate reductase 1) (Arabidopsis thaliana) (protein)
chain: SMTAMADSGEEAVKSVLPGNGISIMVNGCSGKMGKAVIKAADSAGVNIVPISFGSAGEDGQRVEVCGKEITVHGPTEREKVLSSVFEKHPELIVVDYTIPSAVNDNAELYSKVGVPFVMGTTGGDRNKLYETVEEAKIYAVISPQMGKQVVAFLAAMEIMAEQFPGAFSGYSLDVMESHQASKLDASGTAKAVISCFQELGVSYDMDQIQLIRDPKQQVEMVGVPEEHISGHAFHLYHLTSPDETVSFEFQHNVCGRSIYAEGTVDAVLFLAKKIRLKADQRIYNMIDVLREGNMR

How the values were obtained:
[1] = target: T1, AtDHDPR2 (dihydrodipicolinate reductase 2) (Arabidopsis thaliana, UniProt Q8LB01); assay: DHDPS-DHDPR coupled spectrophotometric assay (NADPH oxidation, […] nm); type: biochemical
T1 construct: gene DAPB2; excludes the 53-amino-acid chloroplast transit peptide; tag cleaved
T1 sequence (Q8LB01 54-349): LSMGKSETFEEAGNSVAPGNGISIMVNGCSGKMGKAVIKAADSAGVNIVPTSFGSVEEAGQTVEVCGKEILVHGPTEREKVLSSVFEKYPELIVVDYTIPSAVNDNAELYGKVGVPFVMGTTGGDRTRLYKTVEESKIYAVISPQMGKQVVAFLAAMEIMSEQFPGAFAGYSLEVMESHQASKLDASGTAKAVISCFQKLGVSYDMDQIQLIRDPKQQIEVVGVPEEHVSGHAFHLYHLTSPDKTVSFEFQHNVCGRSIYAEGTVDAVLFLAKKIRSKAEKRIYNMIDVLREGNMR

[2] = target: T2, AtDHDPR1 (dihydrodipicolinate reductase 1) (Arabidopsis thaliana, UniProt O80574); assay: as above; type: biochemical
T2 construct: gene DAPB1; excludes the first 51 amino acids (chloroplast transit peptide); tag cleaved
T2 sequence (O80574 52-347): B1 chain

purified protein [3] = substrate: NC(=O)C1=CN([C@@H]2O[C@H](COP(=O)(O)OP(=O)(O)OC[C@H]3O[C@@H](n4cnc5c(N)ncnc54)[C@H](OP(=O)(O)O)[C@@H]3O)[C@@H](O)[C@H]2O)C=CC1; assay: purified protein; settings: varied: cofactor
purified protein [4] = substrate: O=C(O)C1=NC(C(=O)O)CC=C1; assay: purified protein; settings: NADPH

Row | Molecule | IC50 [1] | IC50 [2] | Km (purified protein [3]) | Km (purified protein [4])
1 | O=C(O)c1cccc(C(=O)O)n1 [2,6-PDC, 2,6-pyridinedicarboxylic acid] | 470 µM | 140 µM | – | –
2 | B1 | – | – | 16 ± 2.6 µM | 37 ± 6.5 µM
